The values that follow come from ChEMBL document CHEMBL5532761, “Rosavin improves insulin resistance and alleviates hepatic and kidney damage via modulating the cGAS-STING pathway and autophagy signaling in HFD/STZ-induced T2DM animals” (2024).

The test system of assay [1] is Rattus norvegicus. Nature of the assay: Antidiabetic activity in high fat diet-STZ induced diabetic Wistar rat model assessed as mean area percentage of LC3B in liver at 30 mg/kg, ip pretreated with high fat diet for 4 weeks followed by 8 hrs fasting after STZ administration and measured after 4 weeks of compound treatment by immunohistochemistry based microscopic analysis (reference value: 0.742 +/- 0.143 %). The class given is functional.

Assay [2] has as its system Rattus norvegicus. Nature of the assay: Antidiabetic activity in ip dosed high fat diet-STZ induced diabetic Wistar rat model assessed as reduction of STING mRNA expression in adipose tissue pretreated with high fat diet for 4 weeks followed by 8 hrs fasting after STZ administration and measured 4 weeks after compound treatment by RT-qPCR analysis. The class given is functional, organism-based. Conditions: dose 10-30 mg/kg. Background: Real-time PCR tracks product formation cycle by cycle.

Assay [3] has as its system Rattus norvegicus. Nature of the assay: Antidiabetic activity in high fat diet-STZ induced diabetic Wistar rat model assessed as triglyceride level at 20 mg/kg, ip pretreated with high fat diet for 4 weeks followed by 8 hrs fasting after STZ administration and measured 4 weeks after compound treatment (reference value: 17.05 +/- 0.803 mmol/L). The class given is functional.

Assay [4] deals with Rattus norvegicus. Nature of the assay: Antidiabetic activity in high fat diet-STZ induced diabetic Wistar rat model assessed as mean area percentage of LC3B in liver at 10 mg/kg, ip pretreated with high fat diet for 4 weeks followed by 8 hrs fasting after STZ administration and measured after 4 weeks of compound treatment by immunohistochemistry based microscopic analysis (reference value: 0.742 +/- 0.143 %). The class given is functional.

In assay [5] the test system is Rattus norvegicus. The assay can be described thus: Antidiabetic activity in high fat diet-STZ induced diabetic Wistar rat model assessed as blood urea nitrogen level at 10 mg/kg, ip pretreated with high fat diet for 4 weeks followed by 8 hrs fasting after STZ administration and measured 4 weeks after compound treatment (reference value: 466.4 +/- 51.16 mg%). The class given is functional.

For assay [6], the system named is Rattus norvegicus. The assay can be described thus: Antidiabetic activity in high fat diet-STZ induced diabetic Wistar rat model assessed as insulin level in serum at 20 mg/kg, ip pretreated with high fat diet for 4 weeks followed by 8 hrs fasting after STZ administration and measured 4 weeks after compound treatment by ELISA (reference value: 16.53 +/- 1.14 microU/ml). The class given is functional.

For assay [7], the system named is Rattus norvegicus. Nature of the assay: Antidiabetic activity in high fat diet-STZ induced diabetic Wistar rat model assessed as blood urea nitrogen level at 20 mg/kg, ip pretreated with high fat diet for 4 weeks followed by 8 hrs fasting after STZ administration and measured 4 weeks after compound treatment (reference value: 466.4 +/- 51.16 mg%). The class given is functional.

Assay [8] concerns Rattus norvegicus. Nature of the assay: Antidiabetic activity in high fat diet-STZ induced diabetic Wistar rat model assessed as triglyceride level at 30 mg/kg, ip pretreated with high fat diet for 4 weeks followed by 8 hrs fasting after STZ administration and measured 4 weeks after compound treatment (reference value: 17.05 +/- 0.803 mmol/L). The class given is functional.
In assay [9] the test system is Rattus norvegicus. Nature of the assay: Antidiabetic activity in high fat diet-STZ induced diabetic Wistar rat model assessed as HOMA-IR level at 30 mg/kg, ip pretreated with high fat diet for 4 weeks followed by 8 hrs fasting after STZ administration and measured 4 weeks after compound treatment (reference value: 21.51 +/- 2.17). The class given is functional.
The subject of assay [10] is Rattus norvegicus. The assay can be described thus: Antidiabetic activity in high fat diet-STZ induced diabetic Wistar rat model assessed as intact hepatocytes by measuring reduction in persistent fatty changes at 20 mg/kg, ip pretreated with high fat diet for 4 weeks followed by 8 hrs fasting after STZ administration and measured 4 weeks after compound treatment by hematoxylin and eosin staining based microscopic analysis. The class given is functional, organism-based.

Assay [11] deals with Rattus norvegicus. The assay can be described thus: Antidiabetic activity in high fat diet-STZ induced diabetic Wistar rat model assessed as preserved integrity of tubular epithelium in kidney at 20 to 30 mg/kg, ip pretreated with high fat diet for 4 weeks followed by 8 hrs fasting after STZ administration and measured 4 weeks after compound treatment by hematoxylin and eosin staining based microscopic analysis. The class given is functional, organism-based. Conditions: dose 20-30 mg/kg.

Assay [12] relates to Rattus norvegicus. The assay can be described thus: Antidiabetic activity in high fat diet-STZ induced diabetic Wistar rat model assessed as urine albumin to creatinine ratio at 10 mg/kg, ip pretreated with high fat diet for 4 weeks followed by 8 hrs fasting after STZ administration and measured 4 weeks after compound treatment (reference value: 87.13 +/- 9.75 mg/g). The class given is functional.

For assay [13], the system named is Rattus norvegicus. Nature of the assay: Antidiabetic activity in ip dosed high fat diet-STZ induced diabetic Wistar rat model assessed as reduction of miR-1976 expression in adipose tissue pretreated with high fat diet for 4 weeks followed by 8 hrs fasting after STZ administration and measured 4 weeks after compound treatment by RT-qPCR analysis. The class given is functional, organism-based. The following applies: dose 10-30 mg/kg.

Assay [14] has as its system Rattus norvegicus. Nature of the assay: Antidiabetic activity in high fat diet-STZ induced diabetic Wistar rat model assessed as reduction in tubular degenerative changes in kidney at 10 mg/kg, ip pretreated with high fat diet for 4 weeks followed by 8 hrs fasting after STZ administration and measured 4 weeks after compound treatment by hematoxylin and eosin staining based microscopic analysis. The class given is functional, organism-based.

Assay [15] deals with Rattus norvegicus. The assay can be described thus: Antidiabetic activity in ip dosed high fat diet-STZ induced diabetic Wistar rat model assessed as reduction of DDX58 mRNA expression in adipose tissue pretreated with high fat diet for 4 weeks followed by 8 hrs fasting after STZ administration and measured 4 weeks after compound treatment by RT-qPCR analysis. The class given is functional, organism-based. The following applies: dose 10-30 mg/kg.

For assay [16], the system named is Rattus norvegicus. Nature of the assay: Antidiabetic activity in high fat diet-STZ induced diabetic Wistar rat model assessed as mean area percentage of TNFalpha in kidney at 30 mg/kg, ip pretreated with high fat diet for 4 weeks followed by 8 hrs fasting after STZ administration and measured after 4 weeks of compound treatment by immunohistochemistry based microscopic analysis (reference value: 24 +/- 1.5 %). The class given is functional.

Assay [17] concerns Rattus norvegicus. The assay can be described thus: Antidiabetic activity in high fat diet-STZ induced diabetic Wistar rat model assessed as increase in AC074117.2 lncRNA expression in adipose tissue at 10 to 30 mg/kg, ip pretreated with high fat diet for 4 weeks followed by 8 hrs fasting after STZ administration and measured 4 weeks after compound treatment by RT-qPCR analysis. The class given is functional, organism-based. Conditions: dose 10-30 mg/kg.

For assay [18], the system named is Rattus norvegicus. The assay can be described thus: Antidiabetic activity in high fat diet-STZ induced diabetic Wistar rat model assessed as cholesterol level at 20 mg/kg, ip pretreated with high fat diet for 4 weeks followed by 8 hrs fasting after STZ administration and measured 4 weeks after compound treatment (reference value: 10.39 +/- 1.3 mmol/L). The class given is functional.

Assay [19] deals with Rattus norvegicus. Nature of the assay: Antidiabetic activity in high fat diet-STZ induced diabetic Wistar rat model assessed as urine albumin to creatinine ratio at 20 mg/kg, ip pretreated with high fat diet for 4 weeks followed by 8 hrs fasting after STZ administration and measured 4 weeks after compound treatment (reference value: 87.13 +/- 9.75 mg/g). The class given is functional.

Assay [20] deals with Rattus norvegicus. Nature of the assay: Antidiabetic activity in high fat diet-STZ induced diabetic Wistar rat model assessed as mean area percentage of TNFalpha in kidney at 20 mg/kg, ip pretreated with high fat diet for 4 weeks followed by 8 hrs fasting after STZ administration and measured after 4 weeks of compound treatment by immunohistochemistry based microscopic analysis (reference value: 24 +/- 1.5 %). The class given is functional.

Assay [21] has as its system Rattus norvegicus. Nature of the assay: Antidiabetic activity in high fat diet-STZ induced diabetic Wistar rat model assessed as glucose level in serum at 20 mg/kg, ip pretreated with high fat diet for 4 weeks followed by 8 hrs fasting after STZ administration and measured 4 weeks after compound treatment (reference value: 527.7 +/- 49.1 mg%). The class given is functional.

For assay [22], the system named is Rattus norvegicus. Nature of the assay: Antidiabetic activity in high fat diet-STZ induced diabetic Wistar rat model assessed as reduction in epididymal adipocyte cell size in adipose tissue at 20 to 30 mg/kg, ip pretreated with high fat diet for 4 weeks followed by 8 hrs fasting after STZ administration and measured 4 weeks after compound treatment by hematoxylin and eosin staining based microscopic analysis. The class given is functional, organism-based. Conditions: dose 20-30 mg/kg.

Activity calls are given as the source filed them. No cut-off for these calls is given here.

Turning to `O[C@@H]1[C@@H](O)[C@H](OC/C=C/c2ccccc2)O[C@H](CO[C@@H]2OC[C@H](O)[C@H](O)[C@H]2O)[C@H]1O`, the Activity in assay [1] is 13.3%; in [2], “Dose-Dependent Effect”; in [3], 6.46 mmol/L; in assay [4] it was 2.22%; in assay [5], 254.7 mg%; in assay [6], 6.4 uU/ml. Also, the Activity was 213.3 mg% in assay [7]; 4.03 mmol/L in assay [8]; 1.73 in assay [9]; 50.75 mg/g in assay [12]; “Dose-Dependent Effect” in assay [13]; “Dose-Dependent Effect” in assay [15]. The Activity in assay [16] is 3.98%; in assay [18] it was 4.27 mmol/L; in assay [19], 33.38 mg/g; in assay [20], 13.17%; in assay [21], 174.8 mg%. The result in assay [10], in assay [11], in assay [17] and in [22] was Active. Besides, the outcome in assay [14] was inactive.
